# Measured values taken from patent publication US8217029B2, “Oxazolidinone antibiotics” (Actelion Pharmaceuticals Ltd, priority 2007, dated 2012).
# Test system: S aureus A798
# Test: Minimal inhibitory concentration (MIC), microdilution method in cation-adjusted Mueller-Hinton Broth following NCCLS guidelines
# Format: cell-based
# Conditions: pH of test medium 7.2-7.3
# In short: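 Broth microdilution per NCCLS M7-A4 in cation-adjusted Mueller-Hinton broth at pH 7.2-7.3; MIC reported in mg/l.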
row,SMILES,MIC [µg/mL]
1,"COc1ccc2nccc(N3CC[C@H](CNC[C@@H]4CN(c5ccc6c(c5)NC(=O)CO6)C(=O)O4)C3)c2n1 [Example 167, 6-[(R)-5-({[(R)-1-(6-Methoxy-[1,5]naphthyridin-4-yl)-pyrrolidin-3-ylmethyl]amino}-methyl)-2-oxo-oxazolidin-3-yl]-4H-benzo[1,4]oxazin-3-one]",≤ 0.031
2,"COc1ccc2nccc(N3CC[C@@H](CNC[C@@H]4CN(c5ccc6c(c5)NC(=O)CO6)C(=O)O4)C3)c2n1 [Example 168, 6-[(R)-5-({[(S)-1-(6-Methoxy-[1,5]naphthyridin-4-yl)-pyrrolidin-3-ylmethyl]-amino}-methyl)-2-oxo-oxazolidin-3-yl]-4H-benzo[1,4]oxazin-3-one]",≤ 0.031
3,"COc1ccc(N2C[C@@H](CN[C@H]3CCN(c4c(F)cnc5ccc(OC)nc45)C3)OC2=O)cc1 [Example 169, (R)-5-{[(S)-1-(3-Fluoro-6-methoxy-[1,5]naphthyridin-4-yl)-pyrrolidin-3-ylamino]-methyl}-3-(4-methoxy-phenyl)-oxazolidin-2-one]",0.5
4,"CCOc1ccc(N2C[C@@H](CN[C@H]3CCN(c4c(F)cnc5ccc(OC)nc45)C3)OC2=O)cc1 [Example 170, (R)-3-(4-Ethoxy-phenyl)-5-{[(S)-1-(3-fluoro-6-methoxy-[1,5]naphthyridin-4-yl)-pyrrolidin-3-ylamino]-methyl}-oxazolidin-2-one]",0.25
5,"COc1ccc2ncc(F)c(N3CC[C@H](NC[C@@H]4CN(c5ccc(OC(F)F)cc5)C(=O)O4)C3)c2n1 [Example 171, (R)-3-(4-Difluoromethoxy-phenyl)-5-{[(S)-1-(3-fluoro-6-methoxy-[1,5]naphthyridin-4-yl)-pyrrolidin-3-ylamino]-methyl}-oxazolidin-2-one]",0.063
6,"COc1ccc(N2C[C@@H](CNC3CN(c4ccnc5ccc(OC)nc45)C3)OC2=O)cc1 [Example 174, (R)-5-{[1-(6-Methoxy-[1,5]naphthyridin-4-yl)-azetidin-3-ylamino]-methyl}-3-(4-methoxy-phenyl)-oxazolidin-2-one]",≤ 0.031
7,"CCOc1ccc(N2C[C@@H](CNC3CN(c4ccnc5ccc(OC)nc45)C3)OC2=O)cc1 [Example 175, (R)-3-(4-Ethoxy-phenyl)-5-{[1-(6-methoxy-[1,5]naphthyridin-4-yl)-azetidin-3-ylamino]-methyl}-oxazolidin-2-one]",≤ 0.031
8,"COc1ccc2nccc(N3CC(NC[C@@H]4CN(c5ccc(OC(F)F)cc5)C(=O)O4)C3)c2n1 [Example 176, (R)-3-(4-Difluoromethoxy-phenyl)-5-{[1-(6-methoxy-[1,5]naphthyridin-4-yl)-azetidin-3-ylamino]-methyl}-oxazolidin-2-one]",≤ 0.031
9,"COc1ccc2nccc(N3C[C@H](NC[C@@H]4CN(c5ccc6c(c5)NC(=O)CO6)C(=O)O4)[C@@H](OC)C3)c2n1 [Example 181, 6-((R)-5-{[(3S,4S)-4-Methoxy-1-(6-methoxy-[1,5]naphthyridin-4-yl)-pyrrolidin-3-ylamino]-methyl}-2-oxo-oxazolidin-3-yl)-4H-benzo[1,4]oxazin-3-one]",0.25
10,"CCOc1ccc(N2C[C@@H](CNC3CCN(c4ccnc5ccc(OC)nc45)CC3)OC2=O)cc1 [Example 184, (R)-3-(4-Ethoxy-phenyl)-5-{[1-(6-methoxy-[1,5]naphthyridin-4-yl)-piperidin-4-ylamino]-methyl}-oxazolidin-2-one]",0.5
11,"COc1ccc2nccc(N3CCC(NC[C@@H]4CN(c5ccc(OC(F)F)cc5)C(=O)O4)CC3)c2n1 [Example 185, (R)-3-(4-Difluoromethoxy-phenyl)-5-{[1-(6-methoxy-[1,5]naphthyridin-4-yl)-piperidin-4-ylamino]-methyl}-oxazolidin-2-one]",0.5

# Further lines, results first:
row,MIC [µg/mL],SMILES
1,≤ 0.031,"COc1ccc2nccc(N3CCCN(C[C@H]4CN(c5ccc6c(c5)NC(=O)CS6)C(=O)O4)CC3)c2n1 [Example 166, 6-{(S)-5-[4-(6-Methoxy-[1,5]naphthyridin-4-yl)-[1,4]diazepan-1-ylmethyl]-2-oxo-oxazolidin-3-yl}-4H-benzo[1,4]thiazin-3-one]"
2,≤ 0.031,"COc1ccc2nccc(N3CC[C@H](NC[C@@H]4CN(c5ccc6c(c5)NC(=O)CS6)C(=O)O4)C3)c2c1 [Example 172, 6-((R)-5-{[(S)-1-(6-Methoxy-quinolin-4-yl)-pyrrolidin-3-ylamino]-methyl}-2-oxo-oxazolidin-3-yl)-4H-benzo[1,4]thiazin-3-one]"
3,≤ 0.031,"COc1ccc2nccc(N3CC[C@@H](CNC[C@@H]4CN(c5ccc6c(c5)NC(=O)CS6)C(=O)O4)C3)c2c1 [Example 173, 6-[(R)-5-({[(S)-1-(6-Methoxy-quinolin-4-yl)-pyrrolidin-3-ylmethyl]-amino}-methyl)-2-oxo-oxazolidin-3-yl]-4H-benzo[1,4]thiazin-3-one]"
4,0.125,"O=C1CSc2ccc(N3C[C@@H](CN[C@@H]4CCN(c5ccnc6ccc(F)cc56)C4)OC3=O)cc2N1 [Example 177, 6-((R)-5-{[(R)-1-(6-Fluoro-quinolin-4-yl)-pyrrolidin-3-ylamino]-methyl}-2-oxo-oxazolidin-3-yl)-4H-benzo[1,4]thiazin-3-one]"
5,0.063,"N#Cc1ccc2nccc(N3CC[C@@H](NC[C@@H]4CN(c5ccc6c(c5)NC(=O)CS6)C(=O)O4)C3)c2c1 [Example 178, 4-((R)-3-{[(R)-2-oxo-3-(3-oxo-3,4-dihydro-2H-benzo[1,4]thiazin-6-yl)-oxazolidin-5-ylmethyl]-amino}-pyrrolidin-1-yl)-quinoline-6-carbonitrile]"
6,≤ 0.031,"O=C1CSc2ccc(N3C[C@@H](CNC4CCN(c5ccnc6ccc(F)cc56)CC4)OC3=O)cc2N1 [Example 179, 6-((R)-5-{[1-(6-Fluoro-quinolin-4-yl)-piperidin-4-ylamino]-methyl}-2-oxo-oxazolidin-3-yl)-4H-benzo[1,4]thiazin-3-one]"
7,≤ 0.031,"N#Cc1ccc2nccc(N3CCC(NC[C@@H]4CN(c5ccc6c(c5)NC(=O)CS6)C(=O)O4)CC3)c2c1 [Example 180, 4-(4-{[(R)-2-oxo-3-(3-oxo-3,4-dihydro-2H-benzo[1,4]thiazin-6-yl)-oxazolidin-5-ylmethyl]-amino}-piperidin-1-yl)-quinoline-6-carbonitrile]"
8,≤ 0.031,"COc1ccc2nccc(N3C[C@H](NC[C@@H]4CN(c5ccc6c(c5)NC(=O)CS6)C(=O)O4)[C@@H](OC)C3)c2n1 [Example 182, 6-((R)-5-{[(3S,4S)-4-Methoxy-1-(6-methoxy-[1,5]naphthyridin-4-yl)-pyrrolidin-3-ylamino]-methyl}-2-oxo-oxazolidin-3-yl)-4H-benzo[1,4]thiazin-3-one]"
9,0.25,"COc1ccc(N2C[C@@H](CNC3CCN(c4ccnc5ccc(OC)nc45)CC3)OC2=O)cc1 [Example 183, (R)-5-{[1-(6-Methoxy-[1,5]naphthyridin-4-yl)-piperidin-4-ylamino]-methyl}-3-(4-methoxy-phenyl)-oxazolidin-2-one]"
10,≤ 0.031,"COc1ccc2nccc(N3CC(CNC[C@@H]4CN(c5ccc6c(c5)NC(=O)CS6)C(=O)O4)C3)c2c1 [Example 186, 6-[(R)-5-({[1-(6-Methoxy-quinolin-4-yl)-azetidin-3-ylmethyl]-amino}-methyl)-2-oxo-oxazolidin-3-yl]-4H-benzo[1,4]thiazin-3-one]"
